Read-outs that look alike come from different tables or passages of the source.
Columns and labels:
E. faecalis ATCC 29212 = assay type: cell-based, Enterococcus faecalis
Protocol: (§1) The synergy of the UTBLPs with various antibiotics was assessed using checkerboard assay as previously described. Briefly, the combination of antibiotic and OMP at varying concentrations were incubated with bacterial inoculum (5 × 10^5 CFU/mL final concentration) at 37 °C for 18 h. Growth in the form of turbidity was confirmed using an EMax Plus microplate reader (Molecular Devices, Union City, CA, USA) at 590 nm. Fractional inhibitory concentration index (FICI) was used to evaluate the interaction between the antibiotic and the OMP. FICI is the sum of the FIC of the antibiotic and the FIC of the OMP. The FIC value is calculated by dividing the MIC of the agents in combination by the MIC of the agent alone. FICI ≤ 0.5 is synergistic, 0.5 < x ≤ 4 is additive, and >4 is antagonistic.

E. coli 94474 [1] = test: microbe, parasite or virus in culture; assay type: cell-based, Escherichia coli; conditions: 94474, 18 h
Summary of the method: (§2)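 MIC was determined by broth microdilution following CLSI guidelines. Serially varied compound concentrations were incubated with bacterial inoculum at 5 × 10^5 CFU/mL (final) for 18 h at 37 °C. Growth was scored as turbidity by absorbance at 590 nm.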

E. coli 94393 = test: microbe, parasite or virus in culture; assay type: cell-based, Escherichia coli; conditions: 94393, 18 h
Summary of the method: as §2

K. pneumoniae 113250 = test: microbe, parasite or virus in culture; assay type: cell-based, Klebsiella pneumoniae; conditions: 113250, 18 h
Summary of the method: as §2

A. baumannii ATCC 17978 [2] = assay type: cell-based, Acinetobacter baumannii; conditions: ATCC 17978, 18 h
Protocol: (§3) The in vitro antibacterial activity of the UTBLPs was assessed against wild-type and clinically isolated bacterial strains. To obtain the MIC of the compounds, the microbroth dilution susceptibility assay was performed according to the Clinical and Laboratory Standards Institute (CLSI, Wayne, PA, USA) guidelines and as previously described. Briefly, the compounds at varying concentrations were incubated with bacterial inoculum (5 × 10^5 CFU/mL final concentration) at 37 °C for 18 h. Growth in the form of turbidity was confirmed using an EMax Plus microplate reader (Molecular Devices, San Jose, CA, USA) at 590 nm.

P. aeruginosa PAO1 [3] = assay type: cell-based, Pseudomonas aeruginosa; conditions: PAO1, 18 h
Protocol: as §3

[4] = system: P. aeruginosa PA262-101856; assay type: cell-based, Pseudomonas aeruginosa; conditions: for MICUTBLP: UTBLP alone
Protocol: as §1

P. aeruginosa PAO1 [5] = assay type: cell-based, Pseudomonas aeruginosa; conditions: for MICUTBLP: UTBLP alone
Protocol: as §1

[6] = system: P. aeruginosa PA259-96196; assay type: cell-based, Pseudomonas aeruginosa; conditions: for MICUTBLP: UTBLP alone
Protocol: as §1

E. coli 94474 [7] = assay type: cell-based, Escherichia coli; conditions: for MICUTBLP: UTBLP alone
Protocol: as §1

E. cloacae 118564 = test: microbe, parasite or virus in culture; assay type: cell-based, Enterobacter cloacae; conditions: 118564, 18 h
Summary of the method: as §2

A. baumannii ATCC 17978 [8] = assay type: cell-based, Acinetobacter baumannii; conditions: for MICUTBLP: UTBLP alone
Protocol: as §1

A. baumannii 92247 = assay type: cell-based, Acinetobacter baumannii; conditions: for MICUTBLP: UTBLP alone
Protocol: as §1

A. baumannii AB027 [9] = assay type: cell-based, Acinetobacter baumannii; conditions: for MICUTBLP: UTBLP alone
Protocol: as §1

A. baumannii AB92247 = test: microbe, parasite or virus in culture; assay type: cell-based, Acinetobacter baumannii; conditions: AB92247, 18 h
Summary of the method: as §2

A. baumannii AB027 [10] = test: microbe, parasite or virus in culture; assay type: cell-based, Acinetobacter baumannii; conditions: AB027, 18 h
Summary of the method: as §2

MSSE 81388 = assay type: cell-based, Staphylococcus epidermidis
Protocol: as §1

MRSE 61589 = assay type: cell-based, Staphylococcus epidermidis
Protocol: as §1

[11] = UTBLP alone, plate with chloramphenicol
[12] = UTBLP in combination with chloramphenicol
[13] = chloramphenicol in combination with the UTBLP
[14] = UTBLP in combination with novobiocin
[15] = UTBLP in combination with rifampicin
[16] = novobiocin in combination with the UTBLP
[17] = rifampicin in combination with the UTBLP
[18] = UTBLP in combination with niclosamide
[19] = niclosamide in combination with the UTBLP

MICUTBLP (E. faecalis ATCC 29212; [11]): > 128 µg/mL
MICUTBLP [MICcombo] (E. faecalis ATCC 29212; [12]): 0.25 µg/mL
MICchloramphenicol [MICcombo] (E. faecalis ATCC 29212; [13]): 8 µg/mL
MIC (E. coli 94474 [1]): > 128 µg/mL
MIC (E. coli 94393): > 128 µg/mL
MIC (K. pneumoniae 113250): > 128 µg/mL
MIC (A. baumannii ATCC 17978 [2]): >128 µg/mL
MIC (P. aeruginosa PAO1 [3]): >128 µg/mL
MICUTBLP ([4]; plate with novobiocin): > 128 µg/mL
MICUTBLP ([4]; plate with rifampicin): > 128 µg/mL
MICUTBLP [MICcombo] [4, 14]: 16 µg/mL
MICUTBLP [MICcombo] [4, 15]: 0.25 µg/mL
MICantibiotic [MICcombo] [4, 16]: 512 µg/mL
MICantibiotic [MICcombo] [4, 17]: 512 µg/mL
MICUTBLP (P. aeruginosa PAO1 [5]; plate with chloramphenicol): > 128 µg/mL
MICUTBLP (P. aeruginosa PAO1 [5]; plate with niclosamide): > 128 µg/mL
MICUTBLP (P. aeruginosa PAO1 [5]; plate with novobiocin): > 128 µg/mL
MICUTBLP (P. aeruginosa PAO1 [5]; plate with rifampicin): > 128 µg/mL
MICUTBLP [MICcombo] (P. aeruginosa PAO1 [5]; [12]): 8 µg/mL
MICUTBLP [MICcombo] (P. aeruginosa PAO1 [5]; [18]): 0.25 µg/mL
MICUTBLP [MICcombo] (P. aeruginosa PAO1 [5]; [14]): 16 µg/mL
MICUTBLP [MICcombo] (P. aeruginosa PAO1 [5]; [15]): 8 µg/mL
MICantibiotic [MICcombo] (P. aeruginosa PAO1 [5]; [13]): 8 µg/mL
MICantibiotic [MICcombo] (P. aeruginosa PAO1 [5]; [19]): 1024 µg/mL
MICantibiotic [MICcombo] (P. aeruginosa PAO1 [5]; [16]): 256 µg/mL
MICantibiotic [MICcombo] (P. aeruginosa PAO1 [5]; [17]): 8 µg/mL
MICUTBLP ([6]; plate with novobiocin): > 128 µg/mL
MICUTBLP ([6]; plate with rifampicin): > 128 µg/mL
MICUTBLP [MICcombo] [6, 14]: 16 µg/mL
MICUTBLP [MICcombo] [6, 15]: 16 µg/mL
MICantibiotic [MICcombo] [6, 16]: 512 µg/mL
MICantibiotic [MICcombo] [6, 17]: 4 µg/mL
MICUTBLP (E. coli 94474 [7]; plate with novobiocin): > 128 µg/mL
MICUTBLP (E. coli 94474 [7]; plate with rifampicin): > 128 µg/mL
MICUTBLP [MICcombo] (E. coli 94474 [7]; [14]): 16 µg/mL
MICUTBLP [MICcombo] (E. coli 94474 [7]; [15]): 16 µg/mL
MICantibiotic [MICcombo] (E. coli 94474 [7]; [16]): 4 µg/mL
MICantibiotic [MICcombo] (E. coli 94474 [7]; [17]): 0.5 µg/mL
MIC (E. cloacae 118564): > 128 µg/mL
MICUTBLP (A. baumannii ATCC 17978 [8]; plate with chloramphenicol): > 128 µg/mL
MICUTBLP (A. baumannii ATCC 17978 [8]; plate with niclosamide): > 128 µg/mL
MICUTBLP (A. baumannii ATCC 17978 [8]; plate with novobiocin): > 128 µg/mL
MICUTBLP (A. baumannii ATCC 17978 [8]; plate with rifampicin): > 128 µg/mL
MICUTBLP [MICcombo] (A. baumannii ATCC 17978 [8]; [12]): 0.25 µg/mL
MICUTBLP [MICcombo] (A. baumannii ATCC 17978 [8]; [18]): 8 µg/mL
MICUTBLP [MICcombo] (A. baumannii ATCC 17978 [8]; [14]): 8 µg/mL
MICUTBLP [MICcombo] (A. baumannii ATCC 17978 [8]; [15]): 16 µg/mL
MICantibiotic [MICcombo] (A. baumannii ATCC 17978 [8]; [13]): 64 µg/mL
MICantibiotic [MICcombo] (A. baumannii ATCC 17978 [8]; [19]): 2 µg/mL
MICantibiotic [MICcombo] (A. baumannii ATCC 17978 [8]; [16]): 0.5 µg/mL
MICantibiotic [MICcombo] (A. baumannii ATCC 17978 [8]; [17]): 0.031 µg/mL
MICUTBLP (A. baumannii 92247; plate with novobiocin): > 128 µg/mL
MICUTBLP (A. baumannii 92247; plate with rifampicin): > 128 µg/mL
MICUTBLP [MICcombo] (A. baumannii 92247; [14]): 16 µg/mL
MICUTBLP [MICcombo] (A. baumannii 92247; [15]): 16 µg/mL
MICantibiotic [MICcombo] (A. baumannii 92247; [16]): 0.25 µg/mL
MICantibiotic [MICcombo] (A. baumannii 92247; [17]): 0.063 µg/mL
MICUTBLP (A. baumannii AB027 [9]; plate with novobiocin): > 128 µg/mL
MICUTBLP (A. baumannii AB027 [9]; plate with rifampicin): > 128 µg/mL
MICUTBLP [MICcombo] (A. baumannii AB027 [9]; [14]): 16 µg/mL
MICUTBLP [MICcombo] (A. baumannii AB027 [9]; [15]): 16 µg/mL
MICantibiotic [MICcombo] (A. baumannii AB027 [9]; [16]): 0.25 µg/mL
MICantibiotic [MICcombo] (A. baumannii AB027 [9]; [17]): 0.063 µg/mL
MIC (A. baumannii AB92247): > 128 µg/mL
MIC (A. baumannii AB027 [10]): > 128 µg/mL
MICUTBLP (MSSE 81388; [11]): 64 µg/mL
MICUTBLP [MICcombo] (MSSE 81388; [12]): 0.25 µg/mL
MICchloramphenicol [MICcombo] (MSSE 81388; [13]): 8 µg/mL
MICUTBLP (MRSE 61589; [11]): 64 µg/mL
MICUTBLP [MICcombo] (MRSE 61589; [12]): 0.25 µg/mL
MICchloramphenicol [MICcombo] (MRSE 61589; [13]): 16 µg/mL
SMILES: CCCCCCCC(=O)N[C@@H](CCCCNC)C(=O)NCCCN(CCCNC(=O)[C@H](CCCCNC)NC(=O)CCCCCCC)CC(=O)N[C@@H](CCCCNC)C(N)=O [UTBLP 2]
Interpretation (E. faecalis ATCC 29212; UTBLP + chloramphenicol): Additive (0.5 < x ≤ 4 is additive)
Interpretation ([4]; UTBLP + novobiocin): Additive (0.5 < x ≤ 4 is additive)
Interpretation ([4]; UTBLP + rifampicin): Additive (0.5 < x ≤ 4 is additive)
Interpretation (P. aeruginosa PAO1 [5]; UTBLP + chloramphenicol): Synergy (FICI ≤ 0.5 is synergistic)
Interpretation (P. aeruginosa PAO1 [5]; UTBLP + niclosamide): Additive (0.5 < x ≤ 4 is additive)
Interpretation (P. aeruginosa PAO1 [5]; UTBLP + novobiocin): Synergy (FICI ≤ 0.5 is synergistic)
Interpretation (P. aeruginosa PAO1 [5]; UTBLP + rifampicin): Additive (0.5 < x ≤ 4 is additive)
Interpretation ([6]; UTBLP + novobiocin): Synergy (FICI ≤ 0.5 is synergistic)
Interpretation ([6]; UTBLP + rifampicin): Synergy (FICI ≤ 0.5 is synergistic)
Interpretation (E. coli 94474 [7]; UTBLP + novobiocin): Synergy (FICI ≤ 0.5 is synergistic)
Interpretation (E. coli 94474 [7]; UTBLP + rifampicin): Synergy (FICI ≤ 0.5 is synergistic)
Interpretation (A. baumannii ATCC 17978 [8]; UTBLP + chloramphenicol): Additive (0.5 < x ≤ 4 is additive)
Interpretation (A. baumannii ATCC 17978 [8]; UTBLP + niclosamide): Synergy (FICI ≤ 0.5 is synergistic)
Interpretation (A. baumannii ATCC 17978 [8]; UTBLP + novobiocin): Synergy (FICI ≤ 0.5 is synergistic)
Interpretation (A. baumannii ATCC 17978 [8]; UTBLP + rifampicin): Synergy (FICI ≤ 0.5 is synergistic)
Interpretation (A. baumannii 92247; UTBLP + novobiocin): Synergy (FICI ≤ 0.5 is synergistic)
Interpretation (A. baumannii 92247; UTBLP + rifampicin): Synergy (FICI ≤ 0.5 is synergistic)
Interpretation (A. baumannii AB027 [9]; UTBLP + novobiocin): Synergy (FICI ≤ 0.5 is synergistic)
Interpretation (A. baumannii AB027 [9]; UTBLP + rifampicin): Synergy (FICI ≤ 0.5 is synergistic)
Interpretation (MSSE 81388; UTBLP + chloramphenicol): Additive (0.5 < x ≤ 4 is additive)
Interpretation (MRSE 61589; UTBLP + chloramphenicol): Additive (0.5 < x ≤ 4 is additive)
